These results are taken from patent US9459250B2, “Use of T1R3 venus flytrap region polypeptide to screen for taste modulators” (SENOMYX, INC., priority 2003, dated 2016).

Sequence of T1R1/T1R3 (Q7RTX1 21-841): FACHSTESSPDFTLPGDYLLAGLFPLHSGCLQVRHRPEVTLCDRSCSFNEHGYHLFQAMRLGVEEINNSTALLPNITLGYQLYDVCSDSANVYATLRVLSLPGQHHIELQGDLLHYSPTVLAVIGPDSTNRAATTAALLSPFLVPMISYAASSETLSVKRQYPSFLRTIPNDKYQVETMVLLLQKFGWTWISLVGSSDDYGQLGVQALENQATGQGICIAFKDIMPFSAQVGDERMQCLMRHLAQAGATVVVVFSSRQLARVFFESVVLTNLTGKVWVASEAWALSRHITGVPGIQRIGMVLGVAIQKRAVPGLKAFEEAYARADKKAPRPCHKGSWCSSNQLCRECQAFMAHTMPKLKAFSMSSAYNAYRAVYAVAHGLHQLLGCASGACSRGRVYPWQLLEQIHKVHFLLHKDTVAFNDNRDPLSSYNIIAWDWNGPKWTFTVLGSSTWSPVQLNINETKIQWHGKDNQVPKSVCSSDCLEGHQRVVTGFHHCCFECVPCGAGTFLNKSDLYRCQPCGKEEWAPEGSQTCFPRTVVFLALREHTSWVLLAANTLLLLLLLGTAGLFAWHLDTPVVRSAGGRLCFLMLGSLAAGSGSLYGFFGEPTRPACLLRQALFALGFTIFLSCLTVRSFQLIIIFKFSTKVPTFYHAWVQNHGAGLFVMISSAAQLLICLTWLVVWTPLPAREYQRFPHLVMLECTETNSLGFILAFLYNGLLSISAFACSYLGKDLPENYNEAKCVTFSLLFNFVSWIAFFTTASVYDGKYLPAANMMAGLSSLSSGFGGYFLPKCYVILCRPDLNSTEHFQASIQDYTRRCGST
Sequence of T1R1/T1R3 (Q7RTX0 21-852 C757R): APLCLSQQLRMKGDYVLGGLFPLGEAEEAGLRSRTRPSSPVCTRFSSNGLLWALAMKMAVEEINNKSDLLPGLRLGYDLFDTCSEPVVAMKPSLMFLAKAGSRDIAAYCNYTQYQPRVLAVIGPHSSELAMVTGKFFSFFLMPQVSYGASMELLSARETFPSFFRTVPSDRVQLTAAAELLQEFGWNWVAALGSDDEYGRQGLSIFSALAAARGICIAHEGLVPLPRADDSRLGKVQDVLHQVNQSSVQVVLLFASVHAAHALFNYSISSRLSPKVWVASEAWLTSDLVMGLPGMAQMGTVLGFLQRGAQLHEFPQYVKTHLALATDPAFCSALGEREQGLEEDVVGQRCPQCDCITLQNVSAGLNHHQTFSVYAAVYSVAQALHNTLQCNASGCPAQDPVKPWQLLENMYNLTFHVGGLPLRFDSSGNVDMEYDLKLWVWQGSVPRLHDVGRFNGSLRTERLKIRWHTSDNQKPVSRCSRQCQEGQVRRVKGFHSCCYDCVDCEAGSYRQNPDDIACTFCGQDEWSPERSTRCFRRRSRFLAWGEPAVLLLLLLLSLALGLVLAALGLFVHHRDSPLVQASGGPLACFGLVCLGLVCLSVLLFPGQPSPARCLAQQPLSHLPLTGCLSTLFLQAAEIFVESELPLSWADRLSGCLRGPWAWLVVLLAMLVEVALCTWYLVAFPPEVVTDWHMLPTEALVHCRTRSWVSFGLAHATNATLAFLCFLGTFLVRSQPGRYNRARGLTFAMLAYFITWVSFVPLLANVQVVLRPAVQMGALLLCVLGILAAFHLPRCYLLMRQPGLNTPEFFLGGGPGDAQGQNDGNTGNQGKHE

One assay concerns the target T1R1/T1R3 (Homo sapiens (Human), UniProt Q7RTX0+Q7RTX1). In words: Umami enhancement assay: MSG dose response with and without compound. The assay is classed as cell-based. Conditions: Table 1; compound @ 0.01 uM. As for the experimental part:
In enhancement assay experiments, a MSG dose response was run and a second MSG dose response was run with a certain amount of candidate compound at every MSG concentrations at the same time. Then, the EC50 ratio is calculated based on the following definitions: EC50 Ratio=EC50(MSG)/EC50(MSG+[Compound])
wherein “[compound]” refers to the concentration of compound used to elicit (or enhance or potentiate) the MSG dose response. Those concentrations can vary from a pM to an mM, more preferred, from a low nM to μM.
HEK-Gα15 cells were engineered to inducibly express T1R1/T1R3 using the GeneSwitch system (Invitrogen). pGene-derived zeocin-resistant expression vectors for human T1R1 and T1R3 (plasmid SXV603 for T1R1 and SXV611 for T1R3) and a puromycin-resistant pSwitch-derived vector that carries the GeneSwitch protein (plasmid SXV628) were linearized and cotransfected into the HEK-Gα15 cell line. Zeocin-resistant and puromycin-resistant colonies were selected, expanded, induced with variable amounts of mifepristone, and tested by calcium imaging for responses to umami taste stimuli. […] After replacement with 50 μl PBS, stimulation was performed at room temperature by the addition of 50 μl PBS supplemented with different stimuli. The maximal fluorescence from four independent determinations were averaged, corrected for background fluorescence measured prior to compound addition, and normalized to the response to 0.002 mM ionomycin (CALBIOCHEM).
On to `COC(=O)c1ccc(NC(=O)c2c(Cl)ccc(Cl)c2OC)cc1` [Compound A2], for which the “Ec50 ratio (vs. MSG)” value is listed as 6.98.

Staying with this assay, now noted: Table 1; compound @ 0.03 uM.
Regarding `CCOc1ccc(NC(=O)c2cc(Cl)ccc2Cl)cc1` [Compound A3], the “Ec50 ratio (vs. MSG)” value was 6.14.

The assay is the same for the next values; noted with them: Table 1; compound @ 0.1 uM.
As for `O=C(N[C@H]1CCCc2ccccc21)c1ccc2c(c1)OCO2` [Compound A47], the “Ec50 ratio (vs. MSG)” value was found to be 6.42. With `CCCC(C)NC(=O)c1ccc(OC)c(Cl)c1` (stereo not drawn) [Compound A80], the “Ec50 ratio (vs. MSG)” value is on record as 5.12.

Staying with this assay, now noted: Table 1; compound @ 0.3 uM.
On to `CCC(COC)NC(=O)c1cc2cc(Cl)ccc2o1` (stereo not drawn) [Compound A11], for which the “Ec50 ratio (vs. MSG)” value worked out at 6.5. On to `CCCC(CCC)NC(=O)c1ccc(OCC)cc1` [Compound A68], for which the “Ec50 ratio (vs. MSG)” value came to 2.62. On the same count and under the same terms, under `CCCC(CCC)NC(=O)c1ccc(OC)c(F)c1` [Compound A74] stands 4.98; under `C=Cc1ccc(C(=O)NC(CCC)CCC)cc1` [Compound A78], 10.22; under `COc1ccc(C(=O)NC2CCc3ccccc32)cc1Cl` (stereo not drawn) [Compound A106], 4.01.

The assay is the same for the next values; noted with them: Table 1; compound @ 1 uM.
Take `COC(=O)C(CC(C)C)NC(=O)c1cc2cc(OC)ccc2o1` (stereo in doubt) [Compound A6]: the “Ec50 ratio (vs. MSG)” value came out at 2.86.

Regarding `CCOc1ccc(NC(=O)c2c(Cl)ccc(Cl)c2OC)cc1` [Compound A1], the “Ec50 ratio (vs. MSG)” value is recorded as 2.74. Take `CCC(CC)NC(=O)c1cc2cc(OC)ccc2o1` [Compound A13]: the “Ec50 ratio (vs. MSG)” value is 4.46.

On to `CCC(CC)NC(=O)c1cc2ccccc2o1` [Compound A21], for which the “Ec50 ratio (vs. MSG)” value came to 3.74.

As to `CCCC(CCC)NC(=O)c1ccc(Br)o1` [Compound A30], the “Ec50 ratio (vs. MSG)” value was 12.6.

With `CCCC(CCC)NC(=O)c1cc(C)c(C)o1` [Compound A31], the “Ec50 ratio (vs. MSG)” value came to 10.04.

Regarding `CCCC(CCC)NC(=O)c1ccc2cc[nH]c2c1` [Compound A35], the “Ec50 ratio (vs. MSG)” value was found to be 8.81.

With `CCCC(CCC)NC(=O)c1ccc(C)s1` [Compound A38], the “Ec50 ratio (vs. MSG)” value worked out at 6.54. The same measure, in the same setting: under `Cc1ccc(C(=O)NC2CCCc3ccccc32)s1` (stereo not drawn) [Compound A39] stands 2.3; under `CC(CCc1ccccc1)NC(=O)c1ccc2c(c1)OCO2` (stereo not drawn) [Compound A48], 9.27. `CCCC(NC(=O)c1ccc2c(c1)OCO2)C(=O)OC` (stereo not drawn) [Compound A49]: the “Ec50 ratio (vs. MSG)” value came out at 9.53. Same read-out and setting: the figure for `COc1cccc(C(=O)NC2CCCc3ccccc32)c1O` (stereo not drawn) [Compound A87] is 3.8; for `COc1ccc([C@@H](C)NC(=O)c2ccc(OC)c(Cl)c2)cc1` [Compound A89] it is 2.85.

For `COc1cccc(C(=O)N[C@H]2CCCc3ccccc32)c1O` [Compound A93], the “Ec50 ratio (vs. MSG)” value was found to be 5.7. The same measure, in the same setting: the figure for `CCCC(CCC)NC(=O)c1ccc(OC)cc1O` [Compound A101] is 7.62. As to `Cc1cc(C(=O)NC2CCCc3ccccc32)ccc1O` (stereo not drawn) [Compound A102], the “Ec50 ratio (vs. MSG)” value is reported as 9.49. For the compound `C=Cc1ccc(C(=O)N[C@H]2CCCc3ccccc32)cc1` [Compound A105], the “Ec50 ratio (vs. MSG)” value stood at 2.79.

Staying with this assay, now noted: Table 1; compound @ 3 uM.
Regarding `CCCCC(CCCC)NC(=O)c1ccc2c(c1)OCO2` [Compound A41], the “Ec50 ratio (vs. MSG)” value was 2.14.

The assay is the same for the next values; noted with them: Table 3; Con. 0.3 uM.
Consider `COc1ccc(NC(=O)NC2CCCCC2C)c(OC)c1` (stereo not drawn) [Compound C8, 1-(2,4-dimethoxyphenyl)-3-(2-methylcyclohexyl)urea], for which the “Ec50 ratio (vs. MSG)” value is 2.62. The same measure, in the same setting: under `CCOc1ccc(NC(=O)NC2CCCCC2C)cc1` (stereo not drawn) [Compound C10, 1-(4-ethoxyphenyl)-3-(2-methylcyclohexyl)urea] stands 2.1.

Staying with this assay, now noted: Table 3; Con. 1 uM.
As to `CCCC(CCC)NC(=O)Nc1ccccc1Cl` [Compound C1, 1-(2-chlorophenyl)-3-(heptan-4-yl)urea], the “Ec50 ratio (vs. MSG)” value came to 4.95.

Consider `CCC(NC(=O)Nc1ccc(Cl)cc1Cl)c1ccccc1` (stereo not drawn) [Compound C2, 1-(2,4-dichlorophenyl)-3-(1-phenylpropyl)urea], for which the “Ec50 ratio (vs. MSG)” value stood at 4.52. As to `CC(NC(=O)Nc1ccccc1Cl)C1CCCCC1` (stereo not drawn) [Compound C5, 1-(2-chlorophenyl)-3-(1-cyclohexylethyl)urea], the “Ec50 ratio (vs. MSG)” value worked out at 9.08. `O=C(Nc1ccccc1Cl)NC1CCCc2ccccc21` (stereo not drawn) [Compound C7, 1-(2-chlorophenyl)-3-(1,2,3,4-tetrahydronaphthalen-1-yl)urea]: the “Ec50 ratio (vs. MSG)” value was 3.68. Regarding `O=C(Nc1ccccc1F)NC1CCCc2ccccc21` (stereo not drawn) [Compound C11, 1-(2-fluorophenyl)-3-(1,2,3,4-tetrahydronaphthalen-1-yl)urea], the “Ec50 ratio (vs. MSG)” value was 4.49.

Regarding `CCC(CC)NC(=O)Nc1ccc(OC)cc1OC` [Compound C13, 1-(2,4-dimethoxyphenyl)-3-(pentan-3-yl)urea], the “Ec50 ratio (vs. MSG)” value was 11.87.

Staying with this assay, now noted: Table 3; Con. 3 uM.
`CC1CCCCC1NC(=O)Nc1ccccc1Cl` (stereo not drawn) [Compound C3, 1-(2-chlorophenyl)-3-(2-methylcyclohexyl)urea]: the “Ec50 ratio (vs. MSG)” value came to 3.24. On to `CCCC(CCC)NC(=O)Nc1ccccc1F` [Compound C4, 1-(2-fluorophenyl)-3-(heptan-4-yl)urea], for which the “Ec50 ratio (vs. MSG)” value stood at 12.15.

Staying with this assay, now noted: Table 4; compound @ 0.3 uM.
As to `CCCC(CCC)NC(=O)/C=C/c1ccc(OC)cc1` [Compound D5, (E)-N-(heptan-4-yl)-3-(4-methoxyphenyl)acrylamide], the “Ec50 ratio (vs. MSG)” value was 3.48.

Take `CCOc1ccc(/C=C/C(=O)NC(C)CC)cc1` (stereo not drawn) [Compound D13, (E)-N-sec-butyl-3-(4-ethoxyphenyl)acrylamide]: the “Ec50 ratio (vs. MSG)” value is on record as 2.7. For `CCCC(CCC)NC(=O)/C=C/c1ccsc1` [Compound D15, (E)-N-(heptan-4-yl)-3-(thiophen-3-yl)acrylamide], the “Ec50 ratio (vs. MSG)” value is recorded as 2.22.

Staying with this assay, now noted: Table 4; compound @ 1 uM.
Regarding `COc1ccc(/C=C/C(=O)NC(C(C)C)C(C)C)cc1` [Compound D1, (E)-N-(2,4-dimethylpentan-3-yl)-3-(4-methoxyphenyl)acrylamide], the “Ec50 ratio (vs. MSG)” value is 3.46.

Take `CC(CCc1ccccc1)NC(=O)/C=C/c1cccs1` (stereo not drawn) [Compound D4, N-(1-Methyl-3-phenyl-propyl)-3-thiophen-2-yl-acrylamide]: the “Ec50 ratio (vs. MSG)” value was 9.73. Consider `CCCC(CCC)NC(=O)/C=C/c1cccs1` [Compound D6, N-(1-Propyl-butyl)-3-thiophen-2-yl-acrylamide], for which the “Ec50 ratio (vs. MSG)” value is 6.3.

Regarding `CCC(CC)NC(=O)/C=C/c1ccc(OC)cc1` [Compound D7, (E)-3-(4-methoxyphenyl)-N-(pentan-3-yl)acrylamide], the “Ec50 ratio (vs. MSG)” value is given as 9.62.

As to `CCC(COC)NC(=O)/C=C/c1ccc(OC)cc1` (stereo not drawn) [Compound D14, (E)-N-(1-methoxybutan-2-yl)-3-(4-methoxyphenyl)acrylamide], the “Ec50 ratio (vs. MSG)” value came to 8.48. On to `COc1ccc(/C=C/C(=O)NC(C)CCc2ccccc2)cc1OC` (stereo not drawn) [Compound D16, (E)-3-(3,4-dimethoxyphenyl)-N-(4-phenylbutan-2-yl)acrylamide], for which the “Ec50 ratio (vs. MSG)” value amounted to 3.13.

The same assay, now with this note: Table 5; compound concentration not given.
In the case of `O=C(NC1CCCc2ccccc21)c1cccc(Cl)c1O` (stereo not drawn) [Compound E7, 3-chloro-2-hydroxy-N(-1,2,3,4-tetrahydronaphthalen-1-yl)benzamide], the “Umami EC50 ratio” value worked out at 4.04. With `COc1cc(C(=O)NC2CCCCC2C)cc(Cl)n1` (stereo not drawn) [Compound E40, 2-chloro-6-methoxy-N-(2-methylcyclohexyl)isonicotinamide], the “Umami EC50 ratio” value is on record as 9.77.
